Assay results: PMC4669789, “Selective inhibition of HDAC8 decreases neuroblastoma growth in vitro and in vivo and enhances retinoic acid-mediated differentiation” (Cell Death & Disease, 2015)

Tests used:
BE(2)-C cells [1] = assay: Longer-term colony assay; format: cell-based, human; settings: ATRA 10 μM, 18 days, empty vector control cells
Protocol: In six-well plates, 500 cells were seeded and treated as indicated. Viable colonies were stained after a minimum of 10 days with crystal violet. For quantification, the mean intensity of each well of the 8-bit binary picture was measured with ImageJ software (U. S. National Institutes of Health, Bethesda, MD, USA; http://imagej.nih.gov/ij/).

BE(2)-C cells [2] = assay: Western blot of histone 4, α-tubulin and SMC3 acetylation; format: cell-based, human; settings: working concentrations: 40 μM Cpd2, 4 μM PCI-34051 and PCI-48000
Protocol: Western blot analysis was performed as described previously.[15] For detection of phosphoproteins, PhosStop (Roche, Penzberg, Germany) was added to the lysis buffer.

[3] = test system: neuroblastoma cell culture; assay: Intracellular whole lysine acetylation via FACS; format: cell-based, human
Protocol: Cells were collected, washed with PBS and fixed with 2% paraformaldehyde for 15 min at room temperature (RT). Cells were permeabilized by incubation with 50 μg/ml digitonin for 6 min at RT. Cells were incubated with primary antibody overnight at 4 °C. After staining with Cy3-conjugated anti-rabbit antibody, cells were analyzed by FACS using CellQuest software (BD Biosciences, San Jose, CA, USA). The following primary antibodies were used: anti-acetylated lysine (polyclonal; Cell Signaling) and anti-neurofilament-M (clone EP2460; Epitomics, Burlingame, CA, USA).

nude mice = assay: Tolerability during xenograft and long-term treatment (body weight, clinical signs); settings: mouse, in vivo
Description: Next, we determined the in vivo efficacy of HDAC8-selective inhibition in neuroblastoma xenograft mouse models. […] One week after tumor cell injection, mice established a palpable tumor mass and the animals were then randomly assigned to treatment and control cohorts.

NMRI Foxn1 nude mice = settings: mouse, in vivo; cited from earlier work
PBMCs = assay: Whole lysine acetylation in PBMC after intraperitoneal administration (FACS); format: in vivo, mouse; settings: 150 mg/kg/d; solvent 32.1
Protocol: Both inhibitors were intraperitoneally injected into NMRI Foxn1 nude mice in increasing doses from 40 up to 400 mg/kg per day for 2 × 5 days. Each dose was tested in a cohort of three animals. Resulting MTDs were validated within cohorts of eight animals for each inhibitor. […] As a reference, the blood of 12 untreated NMRI Foxn1 nude mice was analyzed. […] Vorinostat was used as a control for unselective HDAC inhibition.
Whole blood (100 μl) was collected from the femoral vein of untreated athymic NMRI nude mice (HsdCpb:NMRI-Foxn1^nu; Harlan Laboratories Inc.), and respective animals were killed 2 h after intraperitoneal injection of substances. For the analysis of whole acetylation levels, mice were killed at half-life time of the inhibitors. Whole blood with heparin was added to RBC lysis buffer (diluted 1 : 10) (BioLegend, San Diego, CA, USA) at a ratio of 1 : 4. Next, red blood cell lysis was performed according to the manufacturer's instructions. PBMCs were lysed in SDS lysis buffer for western blot or processed for FACS analysis.

CC1=C(/C=C/C(C)=C/C=C/C(C)=C/C(=O)O)C(C)(C)CCC1 [ATRA, all-trans retinoic acid]
colony formation (BE(2)-C cells [1]): efficiently reduced the ability of empty vector control cells to form colonies

COc1ccc(Cn2ccc3ccc(C(=O)NO)cc32)cc1 [PCI-34051]
SMC3 acetylation (HDAC8 substrate) (BE(2)-C cells [2]): increase in acetylation level | histone 4 acetylation (HDAC1-3 substrate) (BE(2)-C cells [2]): absence of HDAC1-3 substrate acetylation | tubulin acetylation (HDAC6 substrate) (BE(2)-C cells [2]): absence of HDAC6 substrate acetylation

CC(/C=C/C(=O)NO)=C\[C@@H](C)C(=O)c1ccc(N(C)C)cc1 [TSA, trichostatin A]
whole acetyl-lysine mean fluorescent values (Blank-corrected) ([3]; 75nM, solvent 34.4, second experiment): 92.7 | whole acetyl-lysine mean fluorescent values (Blank-corrected) ([3]; 150nM, solvent 24.7, IMR-32 cells, 24 h per Figure 1c): 115.1 | global lysine acetylation ([3]; pan-HDAC inhibitor control, compared with HDAC8 inhibitors): much stronger induction of global lysine acetylation

O=C(CCCCCCC(=O)Nc1ccccc1)NO [vorinostat, suberoylanilide hydroxamic acid]
tolerability at the applied dose (nude mice): clear signs of toxicity, such as diarrhea and weight loss | MTD (NMRI Foxn1 nude mice): 150 mg/kg per day | whole acetyl-lysine mean fluorescent values (Blank-corrected), PBMCs (PBMCs): 54.0
